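Where inhibition never reached the appropriate level, the endpoint shown equals the highest concentration tested. Otherwise, values were interpolated linearly from a five-concentration, 48-hour dose response in 96-well plates. GI50: concentration for 50% inhibition of growth.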 Calls of active or inactive are those of the source. Rule as the data show it: active = GI50 up to about 1.1 µM and inactive = higher.
Key:
Experiment in all cases: growth of human tumour cells (NCI), 48 h
HOP-62 = test system: HOP-62
UO-31 = test system: UO-31
786-0 = test system: 786-0
HCT-15 = test system: HCT-15
OVCAR-4 = test system: OVCAR-4
SNB-75 = test system: SNB-75
TK-10 = test system: TK-10
NCI-H460 = test system: NCI-H460
NCI-H522 = test system: NCI-H522
LOX IMVI = test system: LOX IMVI
U-251 = test system: U-251
SN12C = test system: SN12C
HT-29 = test system: HT-29
ACHN = test system: ACHN
SW-620 = test system: SW-620
UACC-257 = test system: UACC-257
EKVX = test system: EKVX

Structure (SMILES) | GI50 (HOP-62) | GI50 (UO-31) | GI50 (786-0) | GI50 (HCT-15) | GI50 (OVCAR-4) | GI50 (SNB-75) | GI50 (TK-10) | GI50 (NCI-H460) | GI50 (NCI-H522) | GI50 (LOX IMVI) | GI50 (U-251) | GI50 (SN12C) | GI50 (HT-29) | GI50 (ACHN) | GI50 (SW-620) | GI50 (UACC-257) | GI50 (EKVX)
Cc1nc2cc(Nc3ccccc3C(=O)O)ccc2s1 | > 100 µM (inactive) | 34 µM (inactive) | > 100 µM (inactive) | 63.1 µM | > 100 µM (inactive) | > 100 µM (inactive) | > 100 µM (inactive) | > 100 µM (inactive) | 75 µM (inactive) | > 100 µM (inactive) | > 100 µM (inactive) | 63.4 µM (inactive) | > 100 µM (inactive) | > 100 µM (inactive) | > 100 µM (inactive) | – | –
CC(C)(C)C(=O)Nc1cccc2oc(-c3ccccc3)cc12 | > 100 µM (inactive) | 26.2 µM (inactive) | > 100 µM (inactive) | > 100 µM | > 100 µM (inactive) | 85.1 µM (inactive) | – | > 100 µM (inactive) | – | – | > 100 µM (inactive) | > 100 µM (inactive) | > 100 µM (inactive) | > 100 µM (inactive) | > 100 µM (inactive) | > 100 µM (inactive) | 65.3 µM (inactive)
Cc1ccccc1C(C#N)C(=O)C(=O)Nc1nc([N+](=O)[O-])cs1 (stereo not drawn) | > 100 µM (inactive) | > 100 µM (inactive) | > 100 µM (inactive) | > 100 µM | > 100 µM (inactive) | > 100 µM (inactive) | > 100 µM (inactive) | > 100 µM (inactive) | > 100 µM (inactive) | 40.2 µM (inactive) | > 100 µM (inactive) | > 100 µM (inactive) | > 100 µM (inactive) | > 100 µM (inactive) | > 100 µM (inactive) | > 100 µM (inactive) | > 100 µM (inactive)
O=C(O)CNS(=O)(=O)c1ccc(NC(=O)c2ccccc2[N+](=O)[O-])cc1 | – | > 100 µM (inactive) | > 100 µM (inactive) | > 100 µM | > 100 µM (inactive) | > 100 µM (inactive) | > 100 µM (inactive) | > 100 µM (inactive) | > 100 µM (inactive) | > 100 µM (inactive) | > 100 µM (inactive) | > 100 µM (inactive) | > 100 µM (inactive) | > 100 µM (inactive) | > 100 µM (inactive) | > 100 µM (inactive) | > 100 µM (inactive)
O=S1(=O)c2cc(S(=O)(=O)n3ccnc3)ccc2NC2=NCCCN21 | 22 µM (inactive) | 31 µM (inactive) | 32.2 µM (inactive) | – | 47.4 µM (inactive) | 26.7 µM (inactive) | 61 µM (inactive) | – | 14.2 µM (inactive) | 38.5 µM (inactive) | 21.3 µM (inactive) | 33.3 µM (inactive) | 20.3 µM (inactive) | 34.3 µM (inactive) | 26.2 µM (inactive) | > 100 µM (inactive) | > 100 µM (inactive)
Oc1ccc(O)c(-n2cccn2)c1-n1cccn1 | > 100 µM (inactive) | > 100 µM (inactive) | > 100 µM (inactive) | > 100 µM | > 100 µM (inactive) | > 100 µM (inactive) | > 100 µM (inactive) | > 100 µM (inactive) | 25.7 µM (inactive) | > 100 µM (inactive) | > 100 µM (inactive) | > 100 µM (inactive) | > 100 µM (inactive) | > 100 µM (inactive) | 44.6 µM (inactive) | – | > 100 µM (inactive)
NC(=S)N/N=C1/CN(c2ccc(Cl)c(Cl)c2)CC(=O)C1c1nc2ccccc2s1 (stereo not drawn) | > 100 µM (inactive) | 38.7 µM (inactive) | > 100 µM (inactive) | > 100 µM | 92.7 µM (inactive) | 28.5 µM (inactive) | > 100 µM (inactive) | > 100 µM (inactive) | 36.1 µM (inactive) | 59.6 µM (inactive) | 67.1 µM (inactive) | 95.7 µM (inactive) | 81.5 µM (inactive) | 93.3 µM (inactive) | > 100 µM (inactive) | 35.2 µM (inactive) | > 100 µM (inactive)
CCOC(=O)C1C2CCC(C2)C1(CCl)C(=O)OCC (stereo not drawn) | > 100 µM (inactive) | > 100 µM (inactive) | > 100 µM (inactive) | > 100 µM | > 100 µM (inactive) | – | > 100 µM (inactive) | > 100 µM (inactive) | – | > 100 µM (inactive) | > 100 µM (inactive) | > 100 µM (inactive) | > 100 µM (inactive) | > 100 µM (inactive) | > 100 µM (inactive) | > 100 µM (inactive) | –
CCc1ccccc1NC(=O)CCc1nnc(S)[nH]1 | > 100 µM (inactive) | > 100 µM (inactive) | > 100 µM (inactive) | > 100 µM | > 100 µM (inactive) | > 100 µM (inactive) | > 100 µM (inactive) | > 100 µM (inactive) | > 100 µM (inactive) | > 100 µM (inactive) | > 100 µM (inactive) | > 100 µM (inactive) | > 100 µM (inactive) | > 100 µM (inactive) | > 100 µM (inactive) | > 100 µM (inactive) | –
CS(=O)(=O)c1ccc(-c2cc(-c3ccc(S(C)(=O)=O)cc3)[n+](-c3cc(-c4ccc(S(C)(=O)=O)cc4)c([O-])c(-c4ccc(S(C)(=O)=O)cc4)c3)c(-c3ccc(S(C)(=O)=O)cc3)c2)cc1 | > 100 µM (inactive) | > 100 µM (inactive) | > 100 µM (inactive) | > 100 µM | > 100 µM (inactive) | > 100 µM (inactive) | > 100 µM (inactive) | > 100 µM (inactive) | > 100 µM (inactive) | > 100 µM (inactive) | > 100 µM (inactive) | > 100 µM (inactive) | > 100 µM (inactive) | > 100 µM (inactive) | > 100 µM (inactive) | 56.5 µM (inactive) | –
CC1=C(C#N)C(=O)CC(c2ccc(Cl)cc2)N(C)N1 (stereo not drawn) | > 100 µM (inactive) | – | > 100 µM (inactive) | > 100 µM | > 100 µM (inactive) | > 100 µM (inactive) | > 100 µM (inactive) | > 100 µM (inactive) | > 100 µM (inactive) | > 100 µM (inactive) | > 100 µM (inactive) | > 100 µM (inactive) | > 100 µM (inactive) | > 100 µM (inactive) | > 100 µM (inactive) | > 100 µM (inactive) | –
FC(F)(F)c1ccccc1/C=N/C12CC3CC(CC(C3)C1)C2 | > 100 µM (inactive) | 0.908 µM (active) | > 100 µM (inactive) | > 100 µM | > 100 µM (inactive) | 86.1 µM (inactive) | > 100 µM (inactive) | > 100 µM (inactive) | – | > 100 µM (inactive) | > 100 µM (inactive) | > 100 µM (inactive) | > 100 µM (inactive) | > 100 µM (inactive) | > 100 µM (inactive) | > 100 µM (inactive) | > 100 µM (inactive)
N#CC(C#N)=C(C(C#N)C#N)C(C#N)C#N | > 100 µM (inactive) | > 100 µM (inactive) | > 100 µM (inactive) | > 100 µM | > 100 µM (inactive) | > 100 µM (inactive) | > 100 µM (inactive) | > 100 µM (inactive) | > 100 µM (inactive) | > 100 µM (inactive) | > 100 µM (inactive) | > 100 µM (inactive) | > 100 µM (inactive) | – | > 100 µM (inactive) | > 100 µM (inactive) | > 100 µM (inactive)
